This is an account of results in patent US6562820B2, “Method for treatment and prevention of mastitis” (Pharmacia & Upjohn Company, priority 2000, dated 2003).

Molecules are shown by their SMILES.

Common to all, as to assay type: in vivo
For experiment [1], the system named is cow in dry period with moderate mastitis. The experiment can be described thus: Treatment of mastitis in a dry-period cow by intramammary infusion. The settings on record: 3-lactation cow in dry period, 300 mg once per day for 5 days, solution. The protocol:
A 3-lactation cow in dry period with moderate mastitis is administered 300 mg of the oxazolidinone in EXAMPLE 1, once per day for 5 days. The oxazolidinone is formulated as a solution and administered by intramammary infusion.

A further experiment relates to cow without mastitis. As to the kind of experiment: Prevention of mastitis in a cow at the start of dry off period by intramammary infusion. The following applies: 2-lactation cow without mastitis, single dose of 250 mg at start of dry off period, solution, mastitis occurs in untreated dry cows of same herd. The protocol: A 2-lactation cow without mastitis is administered a single dose of 250 mg of the oxazolidinone in EXAMPLE 2 at the start of dry off period. The oxazolidinone is formulated as a solution and administered by intramammary infusion. Although mastitis occurs in other dry cows that are in the same herd but are not treated with the oxazolidinones, the cow treated is not infected.

Experiment [2] relates to cow in lactation with moderate mastitis. The experiment can be described thus: Treatment of mastitis in a lactating cow with oxazolidinone plus bovine lactoferrin by intramammary infusion. The settings on record: 3-lactation cow in lactation, 300 mg in combination with 3 g bovine lactoferrin once per day for 5 consecutive days, composite suspension. The protocol:
A 3-lactation cow in lactation with moderate mastitis is administered 300 mg of the oxazolidinone in EXAMPLE 2 in combination with administration of 3 g of bovine lactoferrin, once per day for 5 consecutive days. The oxazolidinone and the lactoferrin are prepared in a composite suspension formulation and administered by intramammary infusion.

On to `CC(=O)NC[C@H]1CN(c2ccc(N3CCOCC3)c(F)c2)C(=O)O1` [EXAMPLE 1, (S)-N-[[3-[3-fluoro-4-(4-morpholinyl)phenyl]-2-oxo-5-oxazolidinyl]methyl]acetamide], for which the “mastitis status at the end of the treatment” value in experiment [1] is “the mastitis is gone”.

As to `CC(=O)NC[C@H]1CN(c2ccc(N3CCSCC3)c(F)c2)C(=O)O1` [EXAMPLE 2, N-[[(5S)-3-[3-fluoro-4-(4-thiomorpholinyl)phenyl]-2-oxo-1,3-oxazolidin-5-yl]methyl]acetamide], the “occurrence of mastitis infection in treated cow” value with cow without mastitis is “not infected”. In addition, in experiment [2], the “mastitis status at the end of the treatment” value is “the mastitis is gone”.
